Test results taken from US20250051347A1, “BIFUNCTIONAL CHIMERIC HETEROCYCLIC COMPOUND AND USE THEREOF AS ANDROGEN RECEPTOR DEGRADER” (Hinova Pharmaceuticals, Inc., priority 2021, published 2025).
Like-named read-outs stand apart in the source and are kept apart here.

What was measured:
[1] = target: T1, androgen receptor (AR) splicing variant AR-v7 (Homo sapiens, UniProt P10275); test: Degradation activity on androgen receptor splicing variant AR-v7 in 22RV1 cells (ELISA); type: cell-based; details: AR-v7 degradation in 22RV1 cells, 48 h, class symbols
T1 construct: The degradation activity of compounds on AR-v7 in 22RV1 cells; host or cells: 22RV1 cells
T1 sequence (P10275 1-644 isoform P10275-3): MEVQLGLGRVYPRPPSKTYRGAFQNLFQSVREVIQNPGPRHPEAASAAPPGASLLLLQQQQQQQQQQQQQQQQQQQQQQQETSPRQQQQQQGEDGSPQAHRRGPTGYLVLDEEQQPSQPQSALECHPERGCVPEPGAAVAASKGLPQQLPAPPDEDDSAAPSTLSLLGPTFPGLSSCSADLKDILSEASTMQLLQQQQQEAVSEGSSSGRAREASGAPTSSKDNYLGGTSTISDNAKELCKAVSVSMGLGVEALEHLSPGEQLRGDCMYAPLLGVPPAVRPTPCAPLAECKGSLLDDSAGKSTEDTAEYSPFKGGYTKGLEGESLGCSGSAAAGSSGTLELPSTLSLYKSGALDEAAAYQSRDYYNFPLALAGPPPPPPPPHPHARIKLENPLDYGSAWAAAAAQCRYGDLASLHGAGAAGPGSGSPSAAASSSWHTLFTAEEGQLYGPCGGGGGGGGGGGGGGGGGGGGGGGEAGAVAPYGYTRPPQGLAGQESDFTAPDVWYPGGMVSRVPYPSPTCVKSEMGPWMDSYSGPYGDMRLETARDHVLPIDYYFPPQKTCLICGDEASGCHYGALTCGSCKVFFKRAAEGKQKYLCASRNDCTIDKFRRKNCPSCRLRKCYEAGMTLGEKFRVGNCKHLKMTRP

[2] = Homo sapiens, 22Rv1, 144 h, read-out: 22RV1 IC50 (nM), 22RV1 cells, 6 days culture, CCK-8, OD 450 nm

SMILES | DC50 [1] [nM] | IC50 (22RV1 cells; [2]) [nM] | IC50 (22RV1 cells; Homo sapiens, 22Rv1, 144 h, read-out: 22RV1 IC50 (nM)) [nM] | IC50 (22RV1 cells; read-out: 22RV1 IC50, 22RV1 cells, 6 days culture, CCK-8, OD 450 nm) [nM]
CC(C)(c1ccc(Oc2cc(-n3ccnn3)ccn2)cc1)c1ccc(O[C@H]2C[C@H](Nc3ccc4c(c3)C(=O)N(C3CCC(=O)NC3=O)C4=O)C2)cc1 (stereo partly drawn) [Example 169] | < 10 | 10 | – | –
CCC(CC)(c1ccc(Oc2cnc(C(C)O)cn2)cc1)c1ccc(O[C@H]2C[C@@H](Nc3ccc4c(c3)C(=O)N(C3CCC(=O)NC3=O)C4=O)C2)cc1 (stereo partly drawn) [Example 295] | < 10 | 11 | – | –
CC(C)(c1ccc(Oc2cnnc(-n3nccn3)c2)cc1)c1ccc(O[C@H]2C[C@H](Nc3ccc4c(c3)C(=O)N(C3CCC(=O)NC3=O)C4=O)C2)cc1 (stereo partly drawn) [Example 217] | < 10 | 15 | – | –
CC(C)(c1ccc(OCc2ccnc(-c3ncon3)n2)cc1)c1ccc(O[C@H]2C[C@@H](Nc3ccc4c(c3)C(=O)N(C3CCC(=O)NC3=O)C4=O)C2)cc1 (stereo partly drawn) [Example 276] | < 10 | 6 | – | –
CC(c1ccc(Oc2cnc(-n3nccn3)nc2)cc1)c1ccc(O[C@H]2C[C@H](Nc3ccc4c(c3)C(=O)N(C3CCC(=O)NC3=O)C4=O)C2)cc1 (stereo partly drawn) [Example 518] | < 10 | 13 | – | –
CC(C)(c1ccc(OCc2cccc(-n3nccn3)n2)cc1)c1ccc(O[C@H]2C[C@H](Nc3ccc4c(c3)C(=O)N(C3CCC(=O)NC3=O)C4=O)C2)cc1 (stereo partly drawn) [Example 419] | < 10 | 8 | – | –
Cc1nnc(-c2cnc(Oc3ccc(C(C)(C)c4ccc(O[C@H]5C[C@H](Nc6ccc7c(c6)C(=O)N(C6CCC(=O)NC6=O)C7=O)C5)cc4)cc3)cn2)o1 (stereo partly drawn) [Example 589] | < 10 | 7 | – | –
CC(C)(c1ccc(Oc2nccc(-n3nccn3)n2)cc1)c1ccc(O[C@H]2C[C@H](Nc3ccc4c(c3)C(=O)N(C3CCC(=O)NC3=O)C4=O)C2)cc1 (stereo partly drawn) [Example 170, 5-(((1r,3r)-3-(4-(2-(4-((4-(2H-1,2,3-triazol-2-yl)pyrimidin-2-yl)oxy)phenyl)propan-2-yl)phenoxy)cyclobutyl)amino)-2-(2,6-dioxopiperidin-3-yl)isoindol-1,3-dione] | < 10 | 9 | – | –
Cc1nc(-c2ncc(Oc3ccc(C(C)c4ccc(O[C@H]5C[C@H](Nc6ccc7c(c6)C(=O)N(C6CCC(=O)NC6=O)C7=O)C5)cc4)cc3)cn2)no1 (stereo partly drawn) [Example 480] | < 10 | 12 | – | –
CC(C)(c1ccc(OCCCNc2ccc3c(c2)C(=O)N(C2CCC(=O)NC2=O)C3=O)cc1)c1ccc(OCc2ccnc(C(N)=O)n2)cc1 (stereo not drawn) [Example 182, 4-((4-(2-(4-(3-((2-(2,6-dioxopiperidin-3-yl)-1,3-dioxoisoindolin-5-yl)amino)propoxy)phenyl)propan-2-yl)phenoxy)methyl)pyrimidin-2-carbonylamine] | 11 to 100 | 50 | – | –
CC(C)C(O)c1ncc(Oc2ccc(C(C)(C)c3ccc(O[C@H]4C[C@H](Nc5ccc6c(c5)C(=O)N(C5CCC(=O)NC5=O)C6=O)C4)cc3)cc2)cn1 (stereo partly drawn) [Example 290] | < 10 | 7 | – | –
CC(C)(c1ccc(OCCCNc2ccc3c(c2)C(=O)N(C2CCC(=O)NC2=O)C3=O)cc1)c1ccc(OCc2ccnc(N3CCC3)n2)cc1 (stereo not drawn) [Example 383] | 11 to 100 | – | 34 | –
CC(C)(c1ccc(Oc2nccc(N3CC4(COC4)C3)n2)cc1)c1ccc(O[C@H]2C[C@@H](Nc3ccc4c(c3)C(=O)N(C3CCC(=O)NC3=O)C4=O)C2)cc1 (stereo partly drawn) [Example 155] | < 10 | 39 | – | –
Cc1nc(COc2ccc(C(C)(C)c3ccc(OCCCNc4ccc5c(c4)C(=O)N(C4CCC(=O)NC4=O)C5=O)cc3)cc2)cs1 (stereo not drawn) [Example 225, 2-(2,6-dioxopiperidin-3-yl)-5-((3-(4-(2-(4-((2-methylthiazol-4-yl)methoxy)phenyl)propan-2-yl)phenoxy)propyl)amino)isoindolin-1,3-dione] | 11 to 100 | 60 | – | –
CCOc1nccc(COc2ccc(C(C)(C)c3ccc(OCCCNc4ccc5c(c4)C(=O)N(C4CCC(=O)NC4=O)C5=O)cc3)cc2)n1 (stereo not drawn) [Example 69, 2-(2,6-dioxopiperidin-3-yl)-5-((3-(4-(2-(4-((2-ethoxypyrimidin-4-yl)methoxy)phenyl)propan-2-yl)phenoxy)propyl)amino)isoindolin-1,3-dione] | 11 to 100 | 50 | – | –
CC(C)(c1ccc(Oc2cncnc2)cc1)c1ccc(O[C@H]2C[C@H](Nc3ccc4c(c3)C(=O)N(C3CCC(=O)NC3=O)C4=O)C2)cc1 (stereo partly drawn) [Example 477, 2-(2,6-dioxopiperidin-3-yl)-5-(((1r,3r)-3-(4-(2-(4-(pyrimidin-5-yloxy)phenyl)propan-2-yl)phenoxy)cyclobutyl)amino)isoindolin-1,3-dione] | < 10 | 9 | – | –
CC(=O)c1ncc(Oc2ccc(C3(c4ccc(O[C@H]5C[C@H](Nc6ccc7c(c6)C(=O)N(C6CCC(=O)NC6=O)C7=O)C5)cc4)CC3)cc2)cn1 (stereo partly drawn) [Example 378, 5-(((1r,3r)-3-(4-(1-(4-((2-acetylpyrimidin-5-yl)oxy)phenyl)cyclopropyl)phenoxy)cyclobutyl)amino)-2-(2,6-dioxopiperidin-3-yl)isoindolin-1,3-dione] | 11 to 100 | 7 | – | –
CC(O)c1ccc(Oc2ccc(C(C)(C)c3ccc(O[C@H]4C[C@H](Nc5ccc6c(c5)C(=O)N(C5CCC(=O)NC5=O)C6=O)C4)cc3)cc2)cn1 (stereo partly drawn) [Example 123] | < 10 | 7 | – | –
Cc1nccc(Oc2ccc(C(C)(C)c3ccc(O[C@H]4C[C@H](Nc5ccc6c(c5)C(=O)N(C5CCC(=O)NC5=O)C6=O)C4)cc3)cc2)n1 (stereo partly drawn) [Example 197] | < 10 | 5 | – | –
CC(C)(c1ccc(OCCCNc2ccc3c(c2)C(=O)N(C2CCC(=O)NC2=O)C3=O)cc1)c1ccc(OCc2ccnc(N3CCC4(CC3)COC4)n2)cc1 (stereo not drawn) [Example 77, 5-((3-(4-(2-(4-((2-(2-oxa-7-azaspiro[3.5]nonan-7-yl)pyrimidin-4-yl)methoxy)phenyl)propan-2-yl)phenoxy)propyl)amino)-2-(2,6-dioxopiperidin-3-yl)isoindolin-1,3-dione] | 11 to 100 | 44 | – | –
CC(C)(c1ccc(OCc2ccnc(N3CCC[C@@H](O)C3)n2)cc1)c1ccc(O[C@H]2C[C@@H](Nc3ccc4c(c3)C(=O)N(C3CCC(=O)NC3=O)C4=O)C2)cc1 (stereo partly drawn) [Example 397] | < 10 | 13 | – | –
CC(C)(c1ccc(OCCCNc2ccc3c(c2)C(=O)N(C2CCC(=O)NC2=O)C3=O)cc1)c1ccc(OCc2nc(C(=O)N3CCOCC3)no2)cc1 (stereo not drawn) [Example 142, 2-(2,6-dioxopiperidin-3-yl)-5-((3-(4-(2-(4-((3-(morpholine-4-carbonyl)-1,2,4-oxadiazol-5-yl)methoxy)phenyl)propan-2-yl)phenoxy)propyl)amino)isoindolin-1,3-dione] | 11 to 100 | 61 | – | –
COc1nccc(COc2ccc(C3(c4ccc(O[C@H]5C[C@H](Nc6ccc7c(c6)C(=O)N(C6CCC(=O)NC6=O)C7=O)C5)cc4)CCC3)cc2)n1 (stereo partly drawn) [Example 357, 2-(2,6-dioxopiperidin-3-yl)-5-(((1r,3r)-3-(4-(1-(4-((2-methoxypyrimidin-4-yl)methoxy)phenyl)cyclobutyl)phenoxy)cyclobutyl)amino)isoindolin-1,3-dione] | < 10 | 5 | – | –
CC(C)(c1ccc(Oc2ccnc(-n3ccnn3)n2)cc1)c1ccc(O[C@H]2C[C@H](Nc3ccc4c(c3)C(=O)N(C3CCC(=O)NC3=O)C4=O)C2)cc1 (stereo partly drawn) [Example 471, 5-(((1r,3r)-3-(4-(2-(4-((2-(1H-1,2,3-triazol-1-yl)pyrimidin-4-yl)oxy)phenyl)propan-2-yl)phenoxy)cyclobutyl)amino)-2-(2,6-dioxopiperidin-3-yl)isoindolin-1,3-dione] | < 10 | 17 | – | –
Cc1nc(-c2nccc(Oc3ccc(C(C)(C)c4ccc(O[C@H]5C[C@H](Nc6ccc7c(c6)C(=O)N(C6CCC(=O)NC6=O)C7=O)C5)cc4)cc3)n2)no1 (stereo partly drawn) [Example 288] | < 10 | 4 | – | –
CNC(=O)c1ncc(Oc2ccc(C(C)(C)c3ccc(O[C@H]4C[C@H](Nc5ccc6c(c5)C(=O)N(C5CCC(=O)NC5=O)C6=O)C4)cc3)cc2)cn1 (stereo partly drawn) [Example 432] | < 10 | 7 | – | –
CC(C)(O)c1ncc(Oc2ccc(C(C)(C)c3ccc(O[C@H]4C[C@H](Nc5ccc6c(c5)C(=O)N(C5CCC(=O)NC5=O)C6=O)C4)cc3)cc2)cn1 (stereo partly drawn) [Example 548] | < 10 | 8 | – | –
Cc1nc(-c2ncc(Oc3ccc(C(C)(C)c4ccc(OC5CC(Nc6ccc7c(c6)CN([C@H]6CCC(=O)NC6=O)C7=O)C5)cc4)cc3)cn2)no1 (stereo partly drawn) [Example 101] | < 10 | – | – | 2.4
CC(C)(c1ccc(OCc2ccnc(NC3COC3)n2)cc1)c1ccc(O[C@H]2C[C@@H](Nc3ccc4c(c3)C(=O)N(C3CCC(=O)NC3=O)C4=O)C2)cc1 (stereo partly drawn) [Example 237] | < 10 | 9 | – | –
Cn1cc(-c2cccc(COc3ccc(C(C)(C)c4ccc(O[C@H]5C[C@H](Nc6ccc7c(c6)C(=O)N(C6CCC(=O)NC6=O)C7=O)C5)cc4)cc3)n2)cn1 (stereo partly drawn) [Example 416] | < 10 | 22 | – | –
